Test results published in ChEMBL document CHEMBL1201862, “PubChem BioAssay data set” (2004).
Active and inactive are the calls of the source.

What was measured:
[1] = target: Dual specificity protein kinase CLK4 (Homo sapiens, UniProt Q9HAZ1); format: functional
[2] = target: Vascular endothelial growth factor receptor 2 (Homo sapiens, UniProt P35968); format: functional
[3] = target: Macrophage colony-stimulating factor 1 receptor (Homo sapiens, UniProt P07333); format: functional;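 further: value comes from the Navigating the Kinome screening panel, CSF1R member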
[4] = target: Cyclin-dependent kinase 19 (Homo sapiens, UniProt Q9BWU1); assay: Navigating the Kinome. Panel member name: CDC2L6; format: functional
[5] = target: Multidrug resistance protein CDR1 (Candida albicans, UniProt P43071); assay: Candida albicans Cdr1 pump inhibition curves – singleplex, Cherry Pick2 set, dose response (AID 623996); format: functional; conditions: read-out: EC50_MICROM
[6] = target: Benomyl/methotrexate resistance protein (Candida albicans, UniProt P28873); assay: Candida albicans Mdr1 pump inhibition curves – singleplex, Cherry Pick1 hits, dose response (AID 588608); format: functional
[7] = target: T1, Replicative DNA helicase DnaB (Mycobacterium tuberculosis, UniProt P9WMR3); assay: DnaB intein splicing inhibitors, dose response, biochemical, cell-free fluorescence (AID 449749); format: functional
T1 sequence (P9WMR3 whole entry): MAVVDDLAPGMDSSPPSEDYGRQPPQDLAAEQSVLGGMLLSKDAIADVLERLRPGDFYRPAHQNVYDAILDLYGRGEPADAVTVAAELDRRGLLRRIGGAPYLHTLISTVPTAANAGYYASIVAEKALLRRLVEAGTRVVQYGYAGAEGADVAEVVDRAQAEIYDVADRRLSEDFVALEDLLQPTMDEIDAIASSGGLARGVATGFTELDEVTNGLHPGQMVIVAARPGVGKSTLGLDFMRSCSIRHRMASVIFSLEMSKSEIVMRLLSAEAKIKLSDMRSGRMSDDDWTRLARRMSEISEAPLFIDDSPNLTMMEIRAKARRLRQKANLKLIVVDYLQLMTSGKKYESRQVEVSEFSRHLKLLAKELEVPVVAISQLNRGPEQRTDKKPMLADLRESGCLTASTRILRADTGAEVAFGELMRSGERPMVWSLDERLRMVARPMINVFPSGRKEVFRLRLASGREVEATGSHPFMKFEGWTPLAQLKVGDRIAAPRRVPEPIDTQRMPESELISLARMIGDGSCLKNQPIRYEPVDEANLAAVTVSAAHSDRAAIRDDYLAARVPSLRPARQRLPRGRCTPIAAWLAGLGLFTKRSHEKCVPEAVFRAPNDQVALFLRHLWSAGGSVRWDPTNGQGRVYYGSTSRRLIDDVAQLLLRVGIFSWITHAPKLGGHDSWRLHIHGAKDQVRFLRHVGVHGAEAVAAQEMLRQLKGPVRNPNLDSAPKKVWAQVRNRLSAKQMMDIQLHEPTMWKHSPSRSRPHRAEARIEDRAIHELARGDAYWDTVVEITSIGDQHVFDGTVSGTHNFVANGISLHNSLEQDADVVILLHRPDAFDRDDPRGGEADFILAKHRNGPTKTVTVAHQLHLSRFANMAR

[8] = target: T2, Sphingosine 1-phosphate receptor 4 (Homo sapiens, UniProt O95977); assay: Fluorescence dose response cell-based high throughput screening assay for antagonists of the Sphingosine 1-Phosphate Receptor 4 (S1P4). [Related pubchem assays: 1524 (Confirmation in triplicates.), 1510 (Primary screen.)]; format: functional
T2 sequence (O95977 whole entry): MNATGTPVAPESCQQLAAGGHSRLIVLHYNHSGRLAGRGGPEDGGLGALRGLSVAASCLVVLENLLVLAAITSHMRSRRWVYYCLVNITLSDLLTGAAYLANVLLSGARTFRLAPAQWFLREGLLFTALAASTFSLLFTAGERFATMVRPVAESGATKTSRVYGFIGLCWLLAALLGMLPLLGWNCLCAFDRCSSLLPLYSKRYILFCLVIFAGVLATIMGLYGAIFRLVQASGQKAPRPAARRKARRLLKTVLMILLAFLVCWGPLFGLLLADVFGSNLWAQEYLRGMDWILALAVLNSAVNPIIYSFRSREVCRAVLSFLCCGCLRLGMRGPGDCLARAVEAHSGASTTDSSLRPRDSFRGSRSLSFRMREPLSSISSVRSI

[9] = Shn3 3'UTR reporter signal decrease – cell-based, Clone20 osteoblasts, firefly luciferase, cherry-pick, set 2, Schnurri-3 inhibitor project, dose response (AID 720490); format: functional;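 further: actives lower the luminescence signal as inhibitors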
[10] = reduction of Shn3 3'UTR-driven luciferase in osteoblasts – cell-based, Clone20 osteoblasts, firefly luciferase, cherry-picked, dose response (AID 624132); format: functional;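 further: firefly luciferase luminescence from reporter carrying the Shn3 3'UTR in osteoblasts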
[11] = loss of viability in HepG2 cells – cell-based, CellTiter-Glo, cherry-picked, cytotoxicity control for Shn3 inhibitor project, dose response (AID 624134); format: functional
Paired box protein Pax-8 = Paired box protein Pax-8 (Homo sapiens, UniProt Q06710); assay: PAX8 transcriptional activity inhibition in RMG-I – RMG-I cells, luciferase, cherry-pick, dose response (AID 687027); format: functional, cell-based;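 further: luciferase reporter driven by Pax8 target thyroperoxidase promoter measured by SteadyGlo luminescence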
[12] = non-specific 3'UTR reporter inhibition in Clone20-Shn3RL – cell-based, Renilla luciferase, cherry-picked, counter-screen for Shn3 inhibitor project, dose response (AID 624133); format: functional
Protein RecA = target: T3, Protein RecA (Mycobacterium tuberculosis, UniProt P9WHJ3); assay: Fluorescence Cell-Free Homogeneous Dose Retest to Identify Inhibitors of RecA-Intein Splicing Activity. [Related pubchem assays (depositor defined):AID2097, AID2223, AID489010, AID492950]; format: functional
T3 sequence (P9WHJ3 whole entry): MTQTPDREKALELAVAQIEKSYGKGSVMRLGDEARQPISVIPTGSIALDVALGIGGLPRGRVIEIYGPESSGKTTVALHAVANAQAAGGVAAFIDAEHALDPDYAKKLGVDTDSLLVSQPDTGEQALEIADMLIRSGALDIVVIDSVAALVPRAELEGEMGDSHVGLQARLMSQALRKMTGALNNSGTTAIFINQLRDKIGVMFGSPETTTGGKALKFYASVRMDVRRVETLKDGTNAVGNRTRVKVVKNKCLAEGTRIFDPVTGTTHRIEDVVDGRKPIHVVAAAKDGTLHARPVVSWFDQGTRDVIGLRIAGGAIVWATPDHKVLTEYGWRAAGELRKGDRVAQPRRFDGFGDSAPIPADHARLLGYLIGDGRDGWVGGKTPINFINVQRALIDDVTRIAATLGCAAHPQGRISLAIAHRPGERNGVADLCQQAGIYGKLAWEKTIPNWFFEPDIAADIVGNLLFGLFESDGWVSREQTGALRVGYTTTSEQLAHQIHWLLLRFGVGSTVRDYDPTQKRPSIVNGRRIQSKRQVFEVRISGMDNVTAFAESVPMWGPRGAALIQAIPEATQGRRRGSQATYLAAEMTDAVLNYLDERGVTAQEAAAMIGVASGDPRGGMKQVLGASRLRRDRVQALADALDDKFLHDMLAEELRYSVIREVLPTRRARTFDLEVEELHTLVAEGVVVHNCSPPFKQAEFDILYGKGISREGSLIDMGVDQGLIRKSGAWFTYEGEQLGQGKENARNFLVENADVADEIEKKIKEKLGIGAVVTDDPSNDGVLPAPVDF

[13] = Vero cell cytotoxicity, cytotoxicity control for M. tuberculosis inhibitor project, purified and synthesized samples, set 3 (AID 504684); format: functional
[14] = NIH-3T3 fibroblast cytotoxicity, dose response, cytotoxicity control, cell-based, fluorescence, Alamar Blue, secondary assay (AID 2327); format: functional;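 further: NIH-3T3 mouse fibroblasts cultured with fluconazole at 8 µg/mL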
[15] = NIH3T3 cell viability loss – ATP luminescence, mouse fibroblasts, counter-screen, dose response (AID 2010); format: functional, cell-based;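 further: cells exposed to compound for about 90 hours before reading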
[16] = Trypanosoma cruzi growth suppression in host cells – NIH3T3 host cells, beta-gal luminescence, confirmation (AID 2044); format: functional, cell-based;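 further: intracellular parasites grown in NIH/3T3 mouse fibroblasts as host cells; luminescent beta-galactosidase reporter signal from transgenic T. cruzi replicating inside host cells; inhibitors lower the luminescence signal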
[17] = microbe, parasite or virus in culture; format: functional; conditions: Mycobacterium tuberculosis
[18] = Shn3 transcript knock-down in Clone20 cells – cell-based, qPCR, cherry-pick, dose response (AID 743415); format: functional
[19] = Fluorescence-based cell-based high throughput dose response assay for inhibitors of the interaction of nucleotide-binding oligomerization domain containing 2 (NOD2) and the receptor-interacting serine-threonine kinase 2 (RIPK2).; format: functional; conditions: Homo sapiens
[20] = EF1alpha-driven Renilla reporter with control 3'UTR suppression – Clone20-Shn3RL cells, dual-Glo, cherry-pick, set 2, counter-screen for Shn3 3'UTR targeting project, dose response (AID 720724); format: functional, cell-based; conditions: Dual-Go Shn3RL
[21] = A Cell Based Secondary Assay to Explore Cytotoxicity in THP-1 Cells of Compounds that Modulate Mycobacterium tuberculosis in Media Containing Glycerol versus Media without Glycerol (2).; format: functional
[22] = fluconazole-exposed Candida albicans growth modulators – fluorescence, retest, confirmation (AID 2467); format: functional, cell-based
[23] = A Cell Based Secondary Assay to Explore Cytotoxicity in HepG2 Cells of Compounds that Modulate Mycobacterium tuberculosis in Media Containing Glycerol versus Media without Glycerol (2).; format: functional
[24] = target: Sphingosine 1-phosphate receptor 1 (Homo sapiens, UniProt P21453); format: functional;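 further: Tango beta-arrestin reporter U2OS cells stimulated with S1P near its EC80; inhibitor potency meaning antagonism of receptor activation by the natural agonist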
[25] = target: Protein disulfide-isomerase (Homo sapiens, UniProt P07237); assay: inhibition of PDI-driven insulin aggregation – biochemical, turbidity, absorbance, cherry-picked samples, dose response (AID 602350); format: functional
[26] = intracellular Trypanosoma cruzi inhibitors in host cells – cell-based, plate reader, cherry-pick samples, set 3, dose response (AID 651818); format: functional;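 further: compounds incubated with infected cells for about four days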

Paired box protein Pax-8, sequence (Q06710 whole entry): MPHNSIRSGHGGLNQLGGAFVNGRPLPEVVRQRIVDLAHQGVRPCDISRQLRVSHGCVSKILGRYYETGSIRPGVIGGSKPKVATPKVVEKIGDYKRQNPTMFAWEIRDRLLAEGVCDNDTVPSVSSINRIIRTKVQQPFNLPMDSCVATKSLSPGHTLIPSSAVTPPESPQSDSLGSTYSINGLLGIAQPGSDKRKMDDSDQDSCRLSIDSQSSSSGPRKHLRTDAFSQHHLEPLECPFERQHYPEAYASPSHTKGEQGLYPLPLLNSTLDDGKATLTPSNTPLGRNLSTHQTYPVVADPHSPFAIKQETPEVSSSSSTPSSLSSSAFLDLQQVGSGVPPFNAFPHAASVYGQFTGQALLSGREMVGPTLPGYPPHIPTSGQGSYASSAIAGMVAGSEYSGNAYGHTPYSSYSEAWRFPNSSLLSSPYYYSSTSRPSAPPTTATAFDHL
Benomyl/methotrexate resistance protein, sequence (P28873 whole entry): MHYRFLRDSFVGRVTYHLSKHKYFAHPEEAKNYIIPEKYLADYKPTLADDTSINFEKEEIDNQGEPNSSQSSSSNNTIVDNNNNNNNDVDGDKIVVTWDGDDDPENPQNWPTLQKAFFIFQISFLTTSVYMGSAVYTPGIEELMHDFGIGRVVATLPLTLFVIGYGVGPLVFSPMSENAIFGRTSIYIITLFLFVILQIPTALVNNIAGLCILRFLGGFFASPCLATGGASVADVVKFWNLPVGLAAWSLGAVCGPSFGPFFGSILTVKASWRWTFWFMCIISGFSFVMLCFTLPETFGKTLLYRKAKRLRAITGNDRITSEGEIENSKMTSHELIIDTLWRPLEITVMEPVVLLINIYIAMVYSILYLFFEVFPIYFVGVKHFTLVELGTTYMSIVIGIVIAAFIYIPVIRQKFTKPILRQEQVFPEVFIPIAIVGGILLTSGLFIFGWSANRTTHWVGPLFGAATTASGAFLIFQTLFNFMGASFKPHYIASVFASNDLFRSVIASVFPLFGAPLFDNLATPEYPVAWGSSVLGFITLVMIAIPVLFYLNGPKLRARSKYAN
Dual specificity protein kinase CLK4, sequence (Q9HAZ1 whole entry): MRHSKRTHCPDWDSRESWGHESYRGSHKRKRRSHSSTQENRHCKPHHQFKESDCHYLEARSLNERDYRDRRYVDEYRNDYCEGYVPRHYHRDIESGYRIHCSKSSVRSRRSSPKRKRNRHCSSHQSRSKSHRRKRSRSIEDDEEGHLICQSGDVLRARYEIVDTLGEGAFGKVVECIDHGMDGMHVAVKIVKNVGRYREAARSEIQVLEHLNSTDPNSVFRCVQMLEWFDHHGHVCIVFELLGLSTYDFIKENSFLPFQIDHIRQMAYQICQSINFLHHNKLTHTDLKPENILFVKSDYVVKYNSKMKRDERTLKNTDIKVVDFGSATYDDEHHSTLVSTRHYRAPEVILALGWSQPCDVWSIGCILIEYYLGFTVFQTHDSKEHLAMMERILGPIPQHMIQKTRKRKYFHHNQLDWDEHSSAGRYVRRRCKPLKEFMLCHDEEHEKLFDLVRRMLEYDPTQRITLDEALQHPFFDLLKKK
Sphingosine 1-phosphate receptor 1, sequence (P21453 whole entry): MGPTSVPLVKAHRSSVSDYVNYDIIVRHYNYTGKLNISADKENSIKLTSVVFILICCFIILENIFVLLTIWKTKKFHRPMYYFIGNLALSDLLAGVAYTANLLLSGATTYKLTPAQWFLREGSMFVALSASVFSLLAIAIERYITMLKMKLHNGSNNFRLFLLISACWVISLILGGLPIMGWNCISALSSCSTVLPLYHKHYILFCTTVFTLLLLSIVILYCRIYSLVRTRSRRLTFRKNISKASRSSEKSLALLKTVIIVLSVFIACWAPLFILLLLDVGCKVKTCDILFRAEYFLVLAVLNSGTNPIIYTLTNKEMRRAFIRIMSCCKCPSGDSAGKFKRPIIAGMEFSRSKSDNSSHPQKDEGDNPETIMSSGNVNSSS
Cyclin-dependent kinase 19, sequence (Q9BWU1 whole entry): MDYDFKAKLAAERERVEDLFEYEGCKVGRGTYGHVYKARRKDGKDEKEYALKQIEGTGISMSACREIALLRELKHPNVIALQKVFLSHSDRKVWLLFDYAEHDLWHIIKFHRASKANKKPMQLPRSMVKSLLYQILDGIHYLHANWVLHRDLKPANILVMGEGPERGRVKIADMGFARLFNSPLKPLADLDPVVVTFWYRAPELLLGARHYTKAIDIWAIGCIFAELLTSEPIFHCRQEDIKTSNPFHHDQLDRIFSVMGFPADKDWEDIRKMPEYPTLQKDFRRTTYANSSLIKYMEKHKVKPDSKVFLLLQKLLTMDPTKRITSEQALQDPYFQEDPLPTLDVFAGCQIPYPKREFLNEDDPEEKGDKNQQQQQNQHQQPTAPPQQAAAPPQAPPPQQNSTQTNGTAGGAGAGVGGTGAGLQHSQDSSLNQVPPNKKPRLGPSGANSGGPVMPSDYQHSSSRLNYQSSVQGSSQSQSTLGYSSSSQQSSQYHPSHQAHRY
Vascular endothelial growth factor receptor 2, sequence (P35968 whole entry): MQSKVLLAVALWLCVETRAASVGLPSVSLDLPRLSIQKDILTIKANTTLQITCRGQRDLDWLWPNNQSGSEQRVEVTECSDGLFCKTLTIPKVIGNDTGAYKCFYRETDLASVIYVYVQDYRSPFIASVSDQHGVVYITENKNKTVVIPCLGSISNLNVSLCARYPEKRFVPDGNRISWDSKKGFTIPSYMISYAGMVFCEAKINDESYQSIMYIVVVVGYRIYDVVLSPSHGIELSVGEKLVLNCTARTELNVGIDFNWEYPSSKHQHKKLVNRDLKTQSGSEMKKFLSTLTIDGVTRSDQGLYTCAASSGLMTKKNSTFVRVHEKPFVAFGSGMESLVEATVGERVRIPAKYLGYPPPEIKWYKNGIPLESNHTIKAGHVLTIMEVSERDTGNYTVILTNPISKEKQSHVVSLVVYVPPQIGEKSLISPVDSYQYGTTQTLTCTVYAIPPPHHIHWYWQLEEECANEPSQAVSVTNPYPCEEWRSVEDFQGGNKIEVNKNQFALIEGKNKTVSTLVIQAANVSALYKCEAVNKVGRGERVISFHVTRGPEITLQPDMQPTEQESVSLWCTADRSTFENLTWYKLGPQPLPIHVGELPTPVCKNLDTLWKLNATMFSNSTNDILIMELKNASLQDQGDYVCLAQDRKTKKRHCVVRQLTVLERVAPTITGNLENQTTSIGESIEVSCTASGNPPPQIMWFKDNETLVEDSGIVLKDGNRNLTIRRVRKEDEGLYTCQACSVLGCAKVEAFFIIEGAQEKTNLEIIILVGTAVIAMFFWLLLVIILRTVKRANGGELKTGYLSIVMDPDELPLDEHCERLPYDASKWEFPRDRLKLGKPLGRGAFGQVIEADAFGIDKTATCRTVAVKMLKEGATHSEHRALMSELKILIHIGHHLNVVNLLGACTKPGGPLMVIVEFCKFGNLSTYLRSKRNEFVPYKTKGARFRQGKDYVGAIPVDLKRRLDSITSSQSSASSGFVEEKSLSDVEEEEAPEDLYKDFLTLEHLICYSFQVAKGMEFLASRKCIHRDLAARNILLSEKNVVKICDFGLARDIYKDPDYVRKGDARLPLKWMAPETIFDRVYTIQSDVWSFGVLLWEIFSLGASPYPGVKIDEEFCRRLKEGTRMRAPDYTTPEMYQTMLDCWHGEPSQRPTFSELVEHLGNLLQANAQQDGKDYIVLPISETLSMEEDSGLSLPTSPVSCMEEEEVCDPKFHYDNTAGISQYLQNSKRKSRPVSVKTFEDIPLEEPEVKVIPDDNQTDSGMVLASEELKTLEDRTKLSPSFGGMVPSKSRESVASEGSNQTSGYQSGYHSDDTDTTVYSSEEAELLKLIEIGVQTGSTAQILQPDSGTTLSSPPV
Protein disulfide-isomerase, sequence (P07237 whole entry): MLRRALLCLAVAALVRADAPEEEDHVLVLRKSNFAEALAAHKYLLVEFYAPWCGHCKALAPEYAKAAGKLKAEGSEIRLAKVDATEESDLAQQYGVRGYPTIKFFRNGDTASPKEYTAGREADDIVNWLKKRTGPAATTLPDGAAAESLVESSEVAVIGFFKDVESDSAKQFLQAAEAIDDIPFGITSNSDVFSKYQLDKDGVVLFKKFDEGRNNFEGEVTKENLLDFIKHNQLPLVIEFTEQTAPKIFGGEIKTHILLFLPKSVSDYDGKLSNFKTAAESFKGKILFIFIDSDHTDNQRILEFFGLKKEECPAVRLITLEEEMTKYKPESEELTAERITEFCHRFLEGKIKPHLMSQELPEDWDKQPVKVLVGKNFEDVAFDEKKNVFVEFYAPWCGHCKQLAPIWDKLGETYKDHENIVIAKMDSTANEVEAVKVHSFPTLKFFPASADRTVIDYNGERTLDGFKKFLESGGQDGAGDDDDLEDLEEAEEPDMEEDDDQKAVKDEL

Question: With `N#Cc1cnn2c(-c3ccccc3)ccnc12` as the compound, how does the Ki [1] read?
Answer: 10 µM (active)

Question: What about the Ki [2] of the same compound?
Answer: > 100 µM (inactive)

Question: What about the Ki [3] of the same compound?
Answer: > 100 µM (inactive)

Question: And the Ki [4]?
Answer: > 100 µM (inactive)

Question: What does the source list for `CC(C)C(=O)N1CCC2(CC1)Oc1ccc(F)cc1C(=O)C21CC(c2ccccc2)=NO1` (stereo not drawn)?
Answer: EC50 [5]: 23.9 µM (active); EC50 [6]: 12.5 µM (active)

Question: What does the source list for `CCOC(=O)c1ccc(NC(=O)Cn2ncc(Cl)c(Cl)c2=O)cc1`?
Answer: AC50 [7]: 14.1 µM (active); IC50 [8]: 1.47 µM (active); AC50 [9]: 3.69 µM (active); AC50 [10]: 2.32 µM (active); AC50 [11]: 46 µM (active); AC50 (Paired box protein Pax-8): 6.64 µM (active); AC50 [12]: 12.1 µM (active); EC50 (Protein RecA): 3.77 µM (active); CC50 [13]: 3.21 µM (active); EC50 [14]: 2.69 µM (inconclusive); EC50 [15]: 1.96 µM (active); EC50 [16]: 2.06 µM (active); CC50 [17]: 6.68 µM (active); AC50 [18]: 3.72 µM (active); IC50 [19]: 1.77 µM (active); AC50 [20]: 5.4 µM (active); CC50 [21]: 1.62 µM (active); EC50 [22]: 0.582 µM (active); CC50 [23]: 8.45 µM (active); IC50 [24]: 9.77 µM (active)

Question: With `C[C@H](CO)N1C[C@H](C)[C@H](CN(C)S(=O)(=O)c2ccc(F)cc2)Oc2ccc(NC(=O)Cc3cn(C)c4ccccc34)cc2C1=O` as the compound, how does the AC50 [25] read?
Answer: 19.5 µM (active)

Question: And the AC50 [26]?
Answer: 5.29 µM (active)
